Reference: publication PMC8297402, “Trifluoromethyl-substituted 3,5-bis(arylidene)-4-piperidones as potential anti-hepatoma and anti-inflammation agents by inhibiting NF-кB activation” (Journal of Enzyme Inhibition and Medicinal Chemistry, 2021)

How the values were obtained:
p-IκBα = experiment: Western blot, LPS-stimulated phosphorylation of IκBα in RAW264.7 cells; type: cell-based, mouse; details: RAW264.7, 1.0, 2.0, 4.0 μM, LPS 1.0 μg/mL 30 min
Description: (§1) Primary antibodies (anti-Bax, Abcam, ab32503; anti-Bcl-2, Abcam, ab194583; anti-Cleaved caspase-3, Abcam, ab2302; anti-p65, Cell Signalling Technology, 8242S; anti-p-p65, Cell Signalling Technology, 3033S; anti-IκBα, Cell Signalling Technoligy, 4812S; anti-p-IκBα, Cell Signalling Technology, 2859S; anti-p38, Cell Signalling Technology, 8690S; anti-p-p38, Cell Signalling Technology, 4511S; anti-JNK, Cell Signalling Technology, 9258 T; anti-p-JNK, Santa Cruz Biotechnology, sc-6254; anti-GAPDH, Abcam, ab181602), and goat anti-rabbit IgG/HRP secondary antibodies (Cell Signalling Technology, 98164 s) were purchased and used according to the manufacturer’s instructions. HepG2 cell lines were incubated with different doses of BAP 16 (1.0, 2.0, 4.0 μM) for 24 h (Bax, Cleaved caspase-3, Bcl-2). RAW264.7 cells were incubated with BAP 16 for 1 h, then treated with LPS (1.0 μg/mL) for 30 min. Afterward cell extraction was performed and extracts were used for Western blot analysis. Next, 30 μg protein of cell lysates were separated by 12% SDS-PAGE gel. The proteins were then transferred onto nitrocellulose membranes. […] By using Quantity One software (Bio-Rad), western blotting results were quantified from more than three separate experiments.

p-p38 = experiment: Western blot, LPS-induced phosphorylation of p38 in RAW264.7 cells; type: cell-based, mouse; details: RAW264.7, 1.0, 2.0, 4.0 μM, LPS 1.0 μg/mL 30 min
Description: as §1

HepG2 cells = experiment: Apoptosis assay, Annexin V-FITC/PI flow cytometry; type: cell-based, Human; details: 1.0 μM, 24 h
Method: HepG2 cells were selected and plated at a density of approximately 2 × 10^5 cells/well in a 12-well plate. After treatment with BAP 16 (1.0, 2.0, and 4.0 μM) and DMSO for 24 h, cells were harvested, washed twice with pre-chilled PBS, and suspended in 1 × binding buffer at a concentration of 1 × 10^5 cells/mL. According to the manufacturer’s instruction, 100 μL of such medium was then mixed with 5 μL of Annexin V-FITC and 5 μL of propidium iodide (BD Biosciences, San Jose, CA, USA). The mixture was vortexed gently, then incubated in the dark at room temperature for 15 min. Apoptosis analysis was measured by flow cytometry (BD FACS Calibur).

A2780 = experiment: Modified MTT cytotoxicity assay, A2780
Method: (§2) To further verify the anti-tumour activity, one human non-small cell lung cancer cell line (A549), one human ovarian cancer cell line (A2780), and one human normal heptical cell line (HHL-5) were screened by BAPs (4–30) using a modified MTT assay (Supporting Information). DOX and curcumin were selected as positive controls.
(§3) The optical density (OD) value of each well was measured on a
(§4) multi-well plate reader (TECAN, Mӓnnedorf, Switzerland ) at 570 nm.
(§5) Every IC 50 value was the average of three replicates.
(§6) Doxorubicin (DOX) and Curcumin were used as positive controls.

Bax = experiment: Western blot, Bax expression in HepG2 cells; type: cell-based, Human; details: HepG2, 1.0, 2.0, 4.0 μM, 24 h
Description: as §1

p-p65 = experiment: Western blot, LPS-stimulated phosphorylation of p65 in RAW264.7 cells; type: cell-based, mouse; details: RAW264.7, 1.0, 2.0, 4.0 μM, LPS 1.0 μg/mL 30 min
Description: as §1

[1] = Modified MTT cytotoxicity assay, normal heptical cell line HHL-5; details: human, HHL-5 cells (normal hepatic cell line)
Method: as §2, §3, §4, §5, §6

RAW264.7 cell = experiment: MTT toxicity pre-experiment on RAW264.7 macrophagocyte; type: cell-based, mouse
Procedure, shortened: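 Cytotoxicity toward RAW264.7 macrophages determined by MTT assay with compounds at 5.0 μM, expressed as cell survival rate.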

C-Caspase-3 = experiment: Western blot, C-Caspase-3 expression in HepG2 cells; type: cell-based, Human; details: HepG2, 1.0, 2.0, 4.0 μM, 24 h
Description: as §1

Bcl-2 = experiment: Western blot, Bcl-2 expression in HepG2 cells; type: cell-based, Human; details: HepG2, 1.0, 2.0, 4.0 μM, 24 h
Description: as §1

SMMC-7721 = experiment: Modified MTT cytotoxicity assay, SMMC-7721; type: cell-based, Human; details: for SI (selectivity index) SMMC-7721: quotient of IC50 for normal (LO2) and malignant (SMMC-7721) cells
Procedure, shortened: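 HepG2 grown in DMEM, SMMC-7721 and LO2 in RPMI 1640, each with 10% FBS; ~8 × 10^3 cells/well. Compounds at 0.3125-10 μg/mL for 24 h at 37 °C, then MTT for 4 h. IC50 as mean of three replicates.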

O=C1C(=Cc2cccc(C(F)(F)F)c2)CN(S(=O)(=O)c2ccc(C(F)(F)F)cc2)CC1=Cc1cccc(C(F)(F)F)c1 [BAP 16]
Expression level of p-IκBα (p-IκBα): significantly decreased in a dose-dependent manner
Expression level of p-p38 (p-p38): significantly decreased
Apoptosis of HepG2 cells (HepG2 cells): 31.7%
IC50 (A2780; Homo sapiens, A2780, read-out: Cytotoxicity IC50 A2780, MTT, ovarian cancer cell line): 270 ± 20 nM
SI (selectivity index) A2780 (A2780; quotient of IC50 for normal (HHL-5) and malignant (A2780) cells): 23.0
Expression of pro-apoptotic protein Bax (Bax): significantly increased
Expression level of p-p65 (p-p65): significantly decreased in a dose-dependent manner
IC50 [1]: 6200 ± 400 nM
Survival rate RAW264.7 cell (RAW264.7 cell; BAPs 5 μM): 88.6 ± 3.7%
viability at 5 µM (RAW264.7 cell; Mus musculus, RAW264.7, BAPs 5 μM, read-out: Survival rate RAW264.7 cell): 88.6%
Expression of pro-apoptotic protein C-Caspase-3 (C-Caspase-3): significantly increased
Expression of anti-apoptotic protein Bcl-2 (Bcl-2): decreased in a dose-dependent manner
IC50 (SMMC-7721; Homo sapiens, SMMC-7721, 24 h, MTT, 24 h incubation, three replicates): ~1200 nM
SI (selectivity index) SMMC-7721 (SMMC-7721): ca. 14.8
SI (selectivity index) SMMC-7721 (SMMC-7721; listed as 16): 14.8
